Data as given in PubChem BioAssay (NCI).
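Test compounds were applied to cells in 96-well plates for 48 hours at 5 doses. The concentration for 50% growth inhibition is given as GI50. TGI is the concentration that stops growth completely.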

Experiments:
Assay in all cases: DTP human tumour cell line panel, 48 h
SK-OV-3 ovarian = system: SK-OV-3 ovarian
SF-295 CNS = system: SF-295 CNS
HCC-2998 colon = system: HCC-2998 colon
DU-145 prostate = system: DU-145 prostate
RPMI-8226 leukemia = system: RPMI-8226 leukemia
M14 melanoma = system: M14 melanoma
LOX IMVI melanoma = system: LOX IMVI melanoma
NCI-H226 lung = system: NCI-H226 lung
SK-MEL-5 melanoma = system: SK-MEL-5 melanoma
NCI-H23 lung = system: NCI-H23 lung
OVCAR-5 ovarian = system: OVCAR-5 ovarian
MDA-MB-435 = system: MDA-MB-435
KM12 colon = system: KM12 colon
T-47D breast = system: T-47D breast
OVCAR-4 ovarian = system: OVCAR-4 ovarian
CCRF-CEM leukemia = system: CCRF-CEM leukemia
COLO 205 colon = system: COLO 205 colon
RXF 393 renal = system: RXF 393 renal
MOLT-4 leukemia = system: MOLT-4 leukemia
UACC-62 melanoma = system: UACC-62 melanoma
HCT-116 colon = system: HCT-116 colon
TK-10 renal = system: TK-10 renal
SK-MEL-2 melanoma = system: SK-MEL-2 melanoma
786-0 renal = system: 786-0 renal
EKVX NSCLC = system: EKVX NSCLC
A498 renal = system: A498 renal
NCI-H460 lung = system: NCI-H460 lung
NCI-H522 lung = system: NCI-H522 lung
SF-268 CNS = system: SF-268 CNS
HOP-62 NSCLC = system: HOP-62 NSCLC
MDA-MB-231 breast = system: MDA-MB-231 breast
HCT-15 colon = system: HCT-15 colon
SNB-19 CNS = system: SNB-19 CNS
NCI/ADR-RES ovarian = system: NCI/ADR-RES ovarian
SN12C renal = system: SN12C renal
SK-MEL-28 melanoma = system: SK-MEL-28 melanoma
A549 NSCLC = system: A549 NSCLC
UO-31 renal = system: UO-31 renal
K-562 leukemia = system: K-562 leukemia
HL-60(TB) leukemia = system: HL-60(TB) leukemia
HOP-92 NSCLC = system: HOP-92 NSCLC
OVCAR-8 ovarian = system: OVCAR-8 ovarian
UACC-257 melanoma = system: UACC-257 melanoma
ACHN renal = system: ACHN renal
SF-539 CNS = system: SF-539 CNS
U251 CNS = system: U251 CNS
HS 578T breast = system: HS 578T breast
MCF7 breast = system: MCF7 breast
HT29 colon = system: HT29 colon
SW-620 colon = system: SW-620 colon
PC-3 prostate = system: PC-3 prostate
IGROV1 ovarian = system: IGROV1 ovarian
BT-549 breast = system: BT-549 breast
SNB-75 CNS = system: SNB-75 CNS
OVCAR-3 ovarian = system: OVCAR-3 ovarian
CAKI-1 renal = system: CAKI-1 renal
MALME-3M melanoma = system: MALME-3M melanoma
SR leukemia = system: SR leukemia

O=C1NC(=O)/C(=C/c2c(Cl)nc3sccn23)S1
GI50 (SK-OV-3 ovarian): > 70.1 µM
TGI (SK-OV-3 ovarian): > 100 µM
GI50 (SF-295 CNS): 64.4 µM
TGI (SF-295 CNS): > 100 µM
GI50 (HCC-2998 colon): > 100 µM
TGI (HCC-2998 colon): > 100 µM
GI50 (DU-145 prostate): > 100 µM
TGI (DU-145 prostate): > 100 µM
GI50 (RPMI-8226 leukemia): 36.1 µM
TGI (RPMI-8226 leukemia): > 100 µM
GI50 (M14 melanoma): 66.4 µM
TGI (M14 melanoma): > 100 µM
GI50 (LOX IMVI melanoma): 57 µM
TGI (LOX IMVI melanoma): > 100 µM
GI50 (NCI-H226 lung): 14.2 µM
TGI (NCI-H226 lung): > 100 µM
GI50 (SK-MEL-5 melanoma): 35.5 µM
TGI (SK-MEL-5 melanoma): > 100 µM
GI50 (NCI-H23 lung): > 56.4 µM
TGI (NCI-H23 lung): > 100 µM
GI50 (OVCAR-5 ovarian): > 74.6 µM
TGI (OVCAR-5 ovarian): > 100 µM
GI50 (MDA-MB-435): 97.3 µM
TGI (MDA-MB-435): > 100 µM
GI50 (KM12 colon): > 100 µM
TGI (KM12 colon): > 100 µM
GI50 (T-47D breast): 31.3 µM
TGI (T-47D breast): > 75.8 µM
GI50 (OVCAR-4 ovarian): > 100 µM
TGI (OVCAR-4 ovarian): > 100 µM
GI50 (CCRF-CEM leukemia): 71.2 µM
TGI (CCRF-CEM leukemia): > 100 µM
GI50 (COLO 205 colon): > 86.6 µM
TGI (COLO 205 colon): > 100 µM
GI50 (RXF 393 renal): > 65.7 µM
TGI (RXF 393 renal): > 100 µM
GI50 (MOLT-4 leukemia): > 100 µM
TGI (MOLT-4 leukemia): > 100 µM
GI50 (UACC-62 melanoma): 42.3 µM
TGI (UACC-62 melanoma): > 100 µM
GI50 (HCT-116 colon): 80.4 µM
TGI (HCT-116 colon): > 100 µM
GI50 (TK-10 renal): > 57.6 µM
TGI (TK-10 renal): > 100 µM
GI50 (SK-MEL-2 melanoma): > 100 µM
TGI (SK-MEL-2 melanoma): > 100 µM
GI50 (786-0 renal): > 85.8 µM
TGI (786-0 renal): > 100 µM
GI50 (EKVX NSCLC): > 66.1 µM
TGI (EKVX NSCLC): > 100 µM
GI50 (A498 renal): 1.01 µM
TGI (A498 renal): 46.1 µM
GI50 (NCI-H460 lung): > 75.8 µM
TGI (NCI-H460 lung): > 100 µM
GI50 (NCI-H522 lung): > 100 µM
TGI (NCI-H522 lung): > 100 µM
GI50 (SF-268 CNS): > 57.1 µM
TGI (SF-268 CNS): > 100 µM
GI50 (HOP-62 NSCLC): > 100 µM
TGI (HOP-62 NSCLC): > 100 µM
GI50 (MDA-MB-231 breast): 28.7 µM
TGI (MDA-MB-231 breast): > 100 µM
GI50 (HCT-15 colon): > 74.9 µM
TGI (HCT-15 colon): > 100 µM
GI50 (SNB-19 CNS): > 79.1 µM
TGI (SNB-19 CNS): > 100 µM
GI50 (NCI/ADR-RES ovarian): > 100 µM
TGI (NCI/ADR-RES ovarian): > 100 µM
GI50 (SN12C renal): > 51.5 µM
TGI (SN12C renal): > 100 µM
GI50 (SK-MEL-28 melanoma): > 82.4 µM
TGI (SK-MEL-28 melanoma): > 100 µM
GI50 (A549 NSCLC): > 100 µM
TGI (A549 NSCLC): > 100 µM
GI50 (UO-31 renal): > 100 µM
TGI (UO-31 renal): > 100 µM
GI50 (K-562 leukemia): 68.9 µM
TGI (K-562 leukemia): > 100 µM
GI50 (HL-60(TB) leukemia): > 100 µM
TGI (HL-60(TB) leukemia): > 100 µM
GI50 (HOP-92 NSCLC): 20.9 µM
TGI (HOP-92 NSCLC): > 100 µM
GI50 (OVCAR-8 ovarian): > 100 µM
TGI (OVCAR-8 ovarian): > 100 µM
GI50 (UACC-257 melanoma): > 91.9 µM
TGI (UACC-257 melanoma): > 100 µM
GI50 (ACHN renal): > 100 µM
TGI (ACHN renal): > 100 µM
GI50 (SF-539 CNS): > 31.8 µM
TGI (SF-539 CNS): > 83.8 µM
GI50 (U251 CNS): > 81.1 µM
TGI (U251 CNS): > 100 µM
GI50 (HS 578T breast): 30.9 µM
TGI (HS 578T breast): > 100 µM
GI50 (MCF7 breast): > 65.4 µM
TGI (MCF7 breast): > 100 µM
GI50 (HT29 colon): > 100 µM
TGI (HT29 colon): > 100 µM
GI50 (SW-620 colon): > 100 µM
TGI (SW-620 colon): > 100 µM
GI50 (PC-3 prostate): > 87.7 µM
TGI (PC-3 prostate): > 100 µM
GI50 (IGROV1 ovarian): > 100 µM
TGI (IGROV1 ovarian): > 100 µM
GI50 (BT-549 breast): > 84.5 µM
TGI (BT-549 breast): > 100 µM
GI50 (SNB-75 CNS): > 100 µM
TGI (SNB-75 CNS): > 100 µM
GI50 (OVCAR-3 ovarian): > 70.9 µM
TGI (OVCAR-3 ovarian): > 100 µM
GI50 (CAKI-1 renal): > 100 µM
TGI (CAKI-1 renal): > 100 µM
GI50 (MALME-3M melanoma): > 59.7 µM
TGI (MALME-3M melanoma): > 100 µM
GI50 (SR leukemia): 37.6 µM
TGI (SR leukemia): > 100 µM
